Data from patent EP4463162B1, “CONNEXIN 43 FOR USE IN TREATING BRCA1/2-MUTATED CANCER” (Fundación Profesor Novoa Santos, priority 2022, dated 2023).
Read-outs that look alike come from different tables or passages of the source.

How the values were obtained:
[1] = system: control empty vector (EV) HCC1937 cells; assay: 48 h olaparib dose-response curve, cell viability; type: cell-based; settings: Homo sapiens, HCC1937, 48 h
HCC1937 cells = assay: Cell culture under Anoikis-inducing conditions, western blot and imaging; type: cell-based, human
Method: Protein extracts were mixed with loading buffer, which consisted of 10 % (v/v) β-mercaptoethanol (Sigma-Aldrich), 10 % SDS, 50 % (v/v) glycerol, 200 mM Tris-HCl pH 6.8 and 0.1 % bromophenol blue (Sigma-Aldrich). They were boiled at 95 °C for 8 min and 20-30 µg protein were loaded into 8, 10 or 15 % acrylamide/bis-acrylamide self-made gels, depending on the molecular weight of the target protein/s to investigate. Gels were run at 80 V for approximately 2 h using a Mini-PROTEAN Tetra electrophoresis system (BioRad), and then transferred to methanol-preactivated polyvinylidene fluoride (PVDF) membranes (Millipore) at 100 V and 4 °C for 1-1.5 h with a Mini Trans-Blot Electrophoretic Transfer Cell (BioRad). Afterwards, membranes with the transferred proteins were stained with ATX Ponceau S red staining solution (Sigma-Aldrich) for 10 min at room temperature, photographed in an Amersham Imager 600 (GE Healthcare) and unstained with distilled water. They were then blocked for 1 h at room temperature with 5 % skim milk (Sigma-Aldrich) diluted in TBST buffer (Tris-buffered saline TBS composed of 20 mM Tris and 150 mM NaCl, supplemented with 0.05 % (v/v) Tween-20, Sigma-Aldrich) with shaking. Next, membranes were incubated overnight at 4 °C with rotation with primary antibodies of interest (see antibody references in Table 3), diluted in 5 % skim milk in TBST. After 4-5 TBST washes (5 min/wash), membranes were incubated for 1 h at room temperature with rotation with secondary antibodies conjugated to horseradish peroxidase (HRP) (see antibody references in Table 3), diluted in 5 % skim milk in TBST. Membranes were rinsed again 4-5 times (5 min/wash) with TBST and the signal was developed with Pierce ECL Western Blotting Substrate (Thermo Fisher Scientific), in either a LAS-3000 Imager (Fujifilm) or an Amersham Imager 600 (GE Healthcare). When necessary, membranes were stripped for 15 min with a pH 2.2 buffer composed of […], 0.5 g SDS and 5 mL Tween20 in 500 mL distilled water. Once stripped, membranes were washed with TBST for 15 min, re-blocked with 5 % skim milk and re-probed with the antibodies of choice. Ponceau staining and western blot images were analysed and their band intensities quantitated with Image J software.
HCC1937 cells were cultured under anchorage-independent growth conditions for 48 h. For this purpose, non-adherent 90 mm polystyrene Petri dishes (Thermo Fisher Scientific) were coated with 10 mg/ml poly-HEMA (Sigma-Aldrich), which makes the dish surface highly repellent to cells, promoting their culture under forced-suspension conditions. […] Images of the cultures were taken at 0 and 48 h, and cell pellets were then collected for western blot analysis.
Anoikis refers to a form of programmed cell death induced by disruption of cell adhesion of normal epithelial cells that detach from the surrounding extracellular matrix. Anoikis resistance has been identified as a hallmark of cancer cells, as survival of normally adherent cells in suspension conditions can enable them to metastasize to distant sites. It has been studied both in the presence and absence of serum; serum deprivation constitutes another way of measuring cell resilience under adverse circumstances, as fetal bovine serum (FBS) contains a variety of growth factors and other elements required for cell survival in culture. When cultured under anchorage-independent/forced suspension conditions for 48 h (Figure 10.C), Cx43_HCC1937 cells formed smaller multicellular aggregates (dashed red lines) than EV_HCC1937, particularly in the absence of FBS.

HCC1937 spheroids = assay: Three-dimensional tumour spheroid proliferation (spheroid area); type: cell-based, human; settings: for spheroid size, Cx43-restituted smaller than EV counterparts: after 8 days, 3000 initial cell density
Method: The bottom of 96-well flat bottom microplates (Greiner Bio-One) was coated with 1.5 % solution of UltraPure Low Melting Point Agarose (Invitrogen, Thermo Fisher Scientific). Agarose concave bottoms provide non-adhesive conditions and increase cell contacts. 100-200 µL of single-cell suspensions were plated on top of the agarose diluted in their respective media supplemented with 3.5 % Matrigel Matrix Basement Membrane Growth Factor Reduced (Corning) and 5 ng/mL human recombinant EGF (Sigma-Aldrich). Afterwards, plates were incubated under standard cell culture conditions and spheroids were monitored from day 2 onwards by optical microscopy.
Uniform-sized spheroids were produced by plating 3000 EV and Cx43_HCC1937 cells under ultra-low attachment conditions, as well as 5000 Cx43_HCC1937 cells in parallel to account for the expected anti-proliferative effect of Cx43 in untreated tumour cells (day -4) (Figure 7). […] Spheroids were individually tracked during this time and their size was registered every 48 h.
Afterwards, spheroid area measurements were pooled for each condition and EV spheroids were compared against Cx43_HCC1937 spheroids, either those plated at 3000 or 5000 initial cell densities.
Next, Cx43 involvement in the TNBC pathogenesis was studied under more physiological approaches, namely 3D spheroid culture (Figure 10.B) and Anoikis-inducing conditions (Figure 10.C). 3D spheroid culture (Figure 10.B) of HCC1937 cells for 12 days further corroborated the reduction in proliferation determined in 2D culture (Figure 10.A) resulting from Cx43 restoration.

[2] = system: cleaved caspase 3, PARP-1; settings: 50 and 100 µM olaparib
Method: Protein extracts were mixed with loading buffer, which consisted of 10 % (v/v) β-mercaptoethanol (Sigma-Aldrich), 10 % SDS, 50 % (v/v) glycerol, 200 mM Tris-HCl pH 6.8 and 0.1 % bromophenol blue (Sigma-Aldrich). They were boiled at 95 °C for 8 min and 20-30 µg protein were loaded into 8, 10 or 15 % acrylamide/bis-acrylamide self-made gels, depending on the molecular weight of the target protein/s to investigate. Gels were run at 80 V for approximately 2 h using a Mini-PROTEAN Tetra electrophoresis system (BioRad), and then transferred to methanol-preactivated polyvinylidene fluoride (PVDF) membranes (Millipore) at 100 V and 4 °C for 1-1.5 h with a Mini Trans-Blot Electrophoretic Transfer Cell (BioRad). Afterwards, membranes with the transferred proteins were stained with ATX Ponceau S red staining solution (Sigma-Aldrich) for 10 min at room temperature, photographed in an Amersham Imager 600 (GE Healthcare) and unstained with distilled water. They were then blocked for 1 h at room temperature with 5 % skim milk (Sigma-Aldrich) diluted in TBST buffer (Tris-buffered saline TBS composed of 20 mM Tris and 150 mM NaCl, supplemented with 0.05 % (v/v) Tween-20, Sigma-Aldrich) with shaking. […] Ponceau staining and western blot images were analysed and their band intensities quantitated with Image J software.

[3] = Cx43_HCC1937, 50 µM olaparib, 48 h Anoikis-inducing conditions
[4] = EV_HCC1937, 50 µM olaparib, 48 h Anoikis-inducing conditions

O=C(c1cc(Cc2n[nH]c(=O)c3ccccc23)ccc1F)N1CCN(C(=O)C2CC2)CC1 [Olaparib, olaparib]
IC50 [1]: 602 µM | cell aggregates in suspension (HCC1937 cells; 50 µM olaparib, 48 h, effect more pronounced in Cx43_HCC1937 than EV): partial disintegration of these clusters | Total protein PARylation (HCC1937 cells; [3]): decrease | cleaved caspase 3 levels (HCC1937 cells; [3]): further increased this cleavage | γH2AX (HCC1937 cells; Cx43_HCC1937, 50 µM olaparib, 48 h Anoikis-inducing conditions, absence of serum): further exacerbated this outcome | Total protein PARylation (HCC1937 cells; [4]): rise | cleaved caspase 3 levels (HCC1937 cells; [4]): no significant changes | spheroid appearance (HCC1937 spheroids; Cx43_HCC1937 spheroids (3000 and 5000), 8 days of 600 µM olaparib, vs well-defined EV_HCC1937 spheroids): almost non-existent | spheroid size, Cx43-restituted smaller than EV counterparts (HCC1937 spheroids; olaparib 200 µM): 41.7% | spheroid size, Cx43-restituted smaller than EV counterparts (HCC1937 spheroids; olaparib 400 µM): 29.68% | spheroid size, Cx43-restituted smaller than EV counterparts (HCC1937 spheroids; olaparib 600 µM): 12.57% | PARP-1 cleavage ([2]; Cx43_HCC1937, 96 h): strong PARP-1 cleavage | PARP-1 cleavage ([2]; EV_HCC1937, 96 h): low cleavage levels
